From the SangsterLogP compilation

Assays:
[1] = method code SF, from DOI: 10.1021/jm00237a002, PMID: 1133810; conditions: pH 7.2
[2] = not given; remark: listed apart in the source
[3] = not given; remark: listed apart in the source
[4] = method code SF-AS, from DOI: 10.1248/cpb.32.5003, PMID: 6534549
[5] = not given; remark: listed apart in the source
[6] = not given; remark: listed apart in the source
[7] = not given; remark: listed apart in the source
[8] = method code RP-HPLC, from DOI: 10.2166/wqrj.1987.010; conditions: pH 7.0
[9] = method code SF-AS, from Schaper, J. (1979). Simultaneous determination of electronic and lipophilic properties of acids and bases by nonlinear regression analysis of pH-dependent partition measurements. J. Chem. Research …
[10] = not given; remark: listed apart in the source
[11] = method code SF-HPLC, from DOI: 10.1002/ps.2780170106
[12] = not given; remark: listed apart in the source
[13] = not given; remark: listed apart in the source
[14] = method code SF-HPLC, from DOI: 10.1016/j.ejpb.2006.11.002, PMID: 17182232; conditions: pH 7.4
[15] = not given; remark: listed apart in the source
[16] = method code SF-AS/HPLC, from Ellington, J. J. (1988). Octanol/water partition coefficients for evaluation of hazardous waste land disposal: Selected chemicals. US Environmental Protection Agency, Environmental Research …
[17] = method code SF-AS, from THAKUR, B.; Mehta, U.; TIPNIS, P. (1981). Ortho effect in partition coefficients of some o-benzyloxybenzamides. Indian J Pharm Sci, 43(6)224-226.
[18] = not given; remark: listed apart in the source
[19] = method code SF-AS, from DOI: 10.1023/a:1016392123137, PMID: 24272811
[20] = not given; remark: listed apart in the source
[21] = not given; remark: listed apart in the source
[22] = not given; remark: listed apart in the source
[23] = method code SF-HPLC, from DOI: 10.1023/a:1015924724973, PMID: 2762226; conditions: pH 7.4
[24] = method code SF-AS, from DOI: 10.1248/cpb.32.4084, PMID: 6099228; conditions: pH 7.4
[25] = method code SF, from DOI: 10.1021/jm00114a024, PMID: 1920362
[26] = not given; remark: listed apart in the source
[27] = method code SF, from DOI: 10.1023/a:1016286026462, PMID: 8570535
[28] = method code SF-AS, from Busch, N.; Moleyre, J.; Bondivenne, R.; Labrid, C. (1973). Study of the predictive value of the Hansch correlation equations for a series of beta-alkoxy-beta-phenylethyl pyrrolidines. Chimica …
[29] = method code SF-HPLC, from DOI: 10.1016/j.ejpb.2012.12.004, PMID: 23262162
[30] = not given; remark: listed apart in the source
[31] = not given; remark: listed apart in the source
[32] = method code SF-HPLC, from PMID: 1515051; conditions: pH 6.0
[33] = method code SF-HPLC, from DOI: 10.1021/jm00112a026, PMID: 1875345; conditions: pH 7.4
[34] = method code SF-ESR, from DOI: 10.1515/znc-1987-7-832, PMID: 2961152
[35] = not given; remark: listed apart in the source
[36] = from Sparatore, F.; Grieco, C.; Silipo, C.; Vittoria, A. (1979). Use of regression analysis to correlate auxin activity with chemical physical and structural properties of benzotriazole derivatives. III. …; conditions: pH 5.6

`Nc1ccc(S(=O)(=O)Nc2ccccc2)cc1` gave a logP of 1.55.
Compound `CCOc1cnc(NS(=O)(=O)c2ccccc2)nc1` has a logD [1] of 0.53.
For `COC(=O)[C@H]1CSC(c2nc3ccc(O)cc3s2)=N1`, the logP [2] was 2.23.
In the case of `Brc1cc(Br)cc(-c2cc(Br)cc(Br)c2)c1`, the logP [3] is reported as 7.41.
`Nc1ccc(S(=O)(=O)Nc2ccc(S(N)(=O)=O)cc2)cc1` gave a logP of 0.35.
With `O=C(Cc1ccccc1)Nc1ccccc1F` the logP [4] was 2.62.
Work on `CC(C)OP(=O)(OC(C)C)SCc1ccccc1` yielded a logP [5] of 3.43.
For `Clc1ccc(-c2ccc(Cl)c(Cl)c2)cc1Cl`, the logP [3] was 6.04.
With `c1ccc(Cc2nc3ccccc3[nH]2)cc1` the logP [6] was 4.16.
`Clc1ccccc1-c1ccccc1Cl` gave a logP [7] of 4.8.
Compound `CNC(=O)Oc1cccc2c1OC(C)(C)C2` has a logD [8] of 1.88.
`Cc1ccc(NS(=O)(=O)c2ccc(N)cc2)cc1` gave a logP [9] of 2.11.
For `CCC1(CC)C(=O)NC(=O)N=C1OC(C)C`, the logP [10] was 1.86.
With `O=C(O)CCOc1cccc2ccccc12` the logD ([11]; pH 2.0) was 3.
Compound `Clc1cc2oc3c(Cl)c(Cl)c(Cl)cc3c2cc1Cl` has a logP [12] of 6.31.
Compound `CCOP(=S)(OCC)SCSc1ccc(Cl)cc1` has a logP [13] of 4.53.
With `COC(=O)C(NC(=O)c1cccnc1)n1cc(F)c(=O)[nH]c1=O` (stereo not drawn) the logD [14] was -0.12.
Compound `CCN(CC)CCSCc1ccccc1` has a logP [15] of 2.66.
With `O=[N+]([O-])c1cc(C2CCCCC2)c(O)c([N+](=O)[O-])c1` the logP [16] was 4.12.
With `NC(=O)c1ccccc1OCc1ccc([N+](=O)[O-])cc1` the logP [17] was 1.73.
Work on `Clc1cc(Cl)c(-c2cc(Cl)c(Cl)c(Cl)c2Cl)cc1Cl` yielded a logP [18] of 7.15.
Compound `Cc1ccc2c(N)nc(-c3ccccn3)cc2c1` has a logD ([19]; pH 6.0) of 3.04.
With `CNC(=O)Oc1cc(C)c(N(C)C)c(C)c1` the logP [13] was 2.56.
`O=C(Cc1ccccc1)Nc1ccccc1O` gave a logP [4] of 2.4.
Compound `Cc1ccc(Cl)c(NS(=O)(=O)c2nc(C)n(-c3ncccn3)n2)c1Cl` has a logP [20] of 3.
Compound `N#CCCOc1cccc2ccccc12` has a logD ([11]; pH 6.4) of 2.8.
With `c1ccc2c(c1)Cc1ccccc1-2` the logP [21] was 4.2.
`CC(C)(C)NC(=O)[C@@H]1CN(Cc2cccnc2)CCN1C[C@@H](O)C[C@@H](Cc1ccccc1)C(=O)N[C@H]1c2ccccc2C[C@H]1O` showed a logP [22] of 2.79.
In the case of `CCCCOC(=O)[C@@H](N)Cc1ccc(O)c(O)c1`, the logD [23] is reported as 1.19.
`c1ccc2c(c1)ccc1cc3ccc4ccccc4c3nc12` gave a logP [21] of 6.42.
In the case of `CCOC(=O)C(NC(=O)c1cccnc1)n1cc(F)c(=O)[nH]c1=O` (stereo not drawn), the logD [14] is reported as 0.21.
Compound `O=C(CN1CCCCC1)Nc1ccc(Cl)c(Cl)c1` has a logD [24] of 3.65.
In the case of `CCc1cnc(NS(=O)(=O)c2ccccc2)nc1`, the logD [1] is reported as 0.88.
Work on `CN(C)CCN(C)S(=O)(=O)c1ccc(C(C)(C)[N+](=O)[O-])c([N+](=O)[O-])c1` yielded a logP [25] of 1.42.
`Clc1cc2c(c(Cl)c1Cl)Oc1c(Cl)c(Cl)c(Cl)c(Cl)c1O2` gave a logP [26] of 8.2.
Compound `Oc1cc(Cl)ccc1Oc1ccc(Cl)cc1Cl` has a logP [27] of 4.53.
Work on `OC(CN1CCCC1)c1ccccc1` (stereo not drawn) yielded a logP [28] of 1.38.
For `Cc1c(C)c2c(c(C)c1O)CCC(C)(C(=O)O)O2` (stereo not drawn), the logP [29] was 2.61.
For `CN1CC(NC(=O)CSC(=O)c2ccccc2)CC2c3cccc4[nH]cc(c34)CC21` (stereo not drawn), the logP [15] was 1.9.
`CCC(CC)(C(N)=O)c1ccc2c(c1)OCO2` gave a logP [30] of 1.59.
Compound `Clc1ccc(-c2ccc(Cl)cc2Cl)cc1` has a logP [7] of 5.62.
Compound `N[C@@H](Cc1ccc(O)c(O)c1)C(=O)OCCCCO` has a logD [23] of -0.46.
Compound `c1ccc2[nH]c(SCCC3CCCCC3)nc2c1` has a logP [6] of 4.5.
In the case of `Clc1ccccc1C(c1ccccc1)(c1ccccc1)n1ccnc1`, the logP [31] is reported as 4.75.
For `CC(C)COC(=O)n1c(-c2cscn2)nc2ccccc21`, the logD [32] was 3.46.
With `COc1ccc(C=CC(=O)OCCC(C)C)cc1` the logP [27] was 4.83.
`CCOC(=O)C1CCC2C(C1)N2CC(O)Cn1ccnc1` (stereo not drawn) gave a logD [33] of 1.13.
Compound `COC(CN1CCCC1)c1ccccc1` (stereo not drawn) has a logP [28] of 1.88.
Work on `Clc1cccc2c1Oc1ccccc1O2` yielded a logP [26] of 4.75.
With `CC1(C)CC(NC(=O)N(CCCl)N=O)CC(C)(C)N1[O]` the logP [34] was 1.6.
In the case of `CCCc1nc(S(=O)(=O)Nc2c(F)cccc2F)nn1-c1ccccc1`, the logP [20] is reported as 4.2.
In the case of `c1ccc2c(c1)ccc1ccccc12`, the logP [18] is reported as 4.69.
Work on `CCOP(=O)(Sc1ccccc1)Sc1ccccc1` yielded a logP [5] of 3.68.
Compound `CN1C(C(=O)Nc2ccccn2)=C(O)c2sccc2S1(=O)=O` has a logP [22] of 1.9.
Work on `COc1ccc(NC(=O)CN2CCCCC2)cc1` yielded a logD [24] of 2.52.
For `CN(C)c1ccc(NS(=O)(=O)c2ccc(N)cc2)cc1`, the logP [9] was 1.57.
Compound `OC(CN1C2C3CCC(C3)C21)Cn1ccnc1` (stereo not drawn) has a logD [33] of 1.6.
With `CCC1(c2ccccc2)C(=O)NC(=O)N(C(C)C)C1=O` (stereo not drawn) the logP [10] was 2.58.
With `Clc1cc2oc3cc(Cl)c(Cl)c(Cl)c3c2cc1Cl` the logP [12] was 6.7.
With `C=CCC(CC=C)(C(N)=O)c1ccc2c(c1)OCO2` the logP [30] was 2.1.
`S=C=Nc1ccc(-c2ccc(N=C=S)cc2)cc1` gave a logP [35] of 5.5.
`OCCCCCn1nnc2ccccc21` gave a logD [36] of 1.51.
In the case of `Cc1ccc(COc2ccccc2C(N)=O)cc1`, the logP [17] is reported as 1.86.
With `CCOC(=O)n1c(-c2cscn2)nc2ccccc21` the logD [32] was 2.51.
`CNCCN(C)S(=O)(=O)c1ccc(CONC(N)=O)c([N+](=O)[O-])c1` showed a logP [25] of 0.45.
`CS(=O)(=O)c1ccc([C@@H](O)[C@@H](CO)NC(=O)C(Cl)Cl)cc1` gave a logP [31] of 0.15.
For `Cc1ccc2ccc3ccc(C)nc3c2n1`, the logP [19] was 2.46.
With `S=C=NCc1ccc2ccccc2c1` the logP [35] was 4.42.
Work on `CC1(C)CC(NC(=O)N(CCCl)N=O)C(C)(C)[N+]1(C)[O-]` (stereo not drawn) yielded a logP [34] of 1.64.
`C/C=C(/C)C(=O)O[C@H]1CCN2CC=C(COC(=O)[C@@](O)([C@H](C)OC)C(C)(C)O)[C@H]12` showed a logP [16] of 1.28.
Compound `OCCCCCCn1nc2ccccc2n1` has a logD [36] of 2.26.
Compound `COc1ccc2nc(C3=N[C@@H](C(=O)O)CS3)sc2c1` has a logP [2] of 1.16.
With `Cc1cc(Cl)ccc1OCC(=O)OCCCCCC(C)C` the logD [8] was 6.69.
